The values that follow come from publication PMC5397431, “Multigeneration toxicity of imidacloprid and thiacloprid to Folsomia candida” (Ecotoxicology (London, England), 2017).

In data set [1] the test system is Folsomia candida. The following applies: 28 days, LUFA 2.2 soil. The procedure: Tests were performed in 100 ml glass jars, containing c. 30 g moist soil, using five replicate test jars for each exposure concentration. Each jar received ten 10–12 day old animals from age-synchronized cultures, after checking their health under a binocular microscope. The animals were fed with a few grains of dry baker’s yeast (Instant yeast from Algist Bruggeman N.V, Ghent, Belgium) weekly, in small amounts to avoid fungal growth. All incubations took place at 20 ± 2 °C at 75% Relative Humidity and a photoperiod of 16:8 dark: light hours. Test jars were weighed at the start, so that water loss could be monitored on a weekly basis and replenished with deionized water if needed. After exposure, all animals were extracted by flotation and pictures were taken to enable counting the number of surviving adults and juveniles produced using the software package ImageJ with a Cell Counter extension.
If no proper fit was obtained, LC50 values were calculated using the trimmed Spearman-Karber method (Hamilton et al. [1977]/78). No observed effect concentrations (NOEC) were determined applying a one-way ANOVA followed by a one-sided Dunnett’s post hoc test at a significance level of p < 0.05. All statistical analysis, except for the Trimmed Spearman Karber method, were run in SPSS 23.

The test system of data set [2] is Folsomia candida. The following applies: cited from earlier work.
The test system of data set [3] is Folsomia candida. The data set is described as follows: Multigeneration toxicity test (survival and reproduction) with springtails in spiked LUFA 2.2 soil. It counts as in vivo. The following applies: for EC10 / EC50: number of juveniles. The procedure: F. candida were taken from cultures at the Department of Ecological Science at the Vrije Universiteit in Amsterdam. To obtain age-synchronized animals, adults from the culture were separated in boxes with a layer of plaster of Paris over a period of 2–3 days to lay eggs, after which they were removed. After removal of the adults, the eggs were incubated under a 12 h light/12 h dark regime at 20 °C and 75% relative humidity, where they hatched and grew. Juveniles of 10–12 days old were used for testing.
All tests were performed in the natural standard LUFA 2.2 (Lufa Speyer, Germany), a loamy sand with 1.59 ± 0.13% organic carbon, pH in 0.01 M CaCl2 of 5.4 ± 0.2, and water holding capacity (WHC) of 43.5 ± 2.8% of its dry weight.
Pure imidacloprid and thiacloprid (purity 98%) were kindly provided by Bayer CropScience, Monheim, Germany. Test concentrations of imidacloprid and thiacloprid were based on the results of earlier tests. Stock solution of both compounds in water were prepared, to spike the chemicals into the soil and at the same time bringing moisture content to the desired level of 50% of the WHC. To ensure complete thiacloprid dissolution, a small amount of acetone was added to the stock solution. This stock solution was used to spike soil with the highest test concentration and further diluted for spiking soil with the lower concentrations tested. Considering the low amount of acetone needed to make thiacloprid completely dissolve, no attempts were made to correct for that by adding acetone to the lower concentrations and control in the multigeneration test. All soils were thoroughly mixed to achieve a homogenous distribution of the test chemicals in the test soil.
Multigeneration tests started with a control, […] imidacloprid (0, 0.001, 0.003, 0.01, 0.03, 0.1, 0.3, 1.0 mg/kg dry soil) and 9 thiacloprid concentrations (0, 0.0015, 0.0045, 0.014, 0.041, 0.11, 0.31, 1.1, 3.3, 10.0 mg/kg dry soil). Batches of soil sufficient to perform three toxicity tests were prepared. After filling test jars for the parent generation exposure, the remaining spiked soil was stored in glass jars in a climate room at 20 °C for subsequent exposure of the next two generations. Moisture content of the spiked soil was checked regularly by weighing the jars, and replenished by adding deionized water if needed.
After 28 days (35 days for the second generation), the juveniles from the same exposure concentration were pooled in the same container with a moist plaster of Paris bottom and incubated overnight before being transferred to the next cycle of exposure. This experiment spanned a total of three continuous generations (referred to as F0, F1, and F2).

A short description of data set [4]: Chemical analysis of concentrations in test soil (LC-MS) and degradation half-life (DT50). It counts as physicochemical. The following applies: for concentration, % of the nominal concentration: after 63 days. The procedure: Soil samples for chemical analysis of imidacloprid and thiacloprid in the test soil were taken at the start of the exposure of each new generation.
The analytical method to determine actual imidacloprid and thiacloprid concentrations in the test soils followed the principles of the QuEChERS extraction method modified from Anastasiades et al. ([2003]) and Payá et al. ([2007]). Briefly, the procedure used was as follows: approx. 1 g moist soil was taken for low concentration treatments (<1 mg/kg), and 50 µL internal standard (Imidacloprid-d4 and Thiacloprid-d4, 250 µg/L) was added. The sample was shaken for 20 min at 250 rpm with 2 mL methanol and centrifuged for 3 min at 1500 rpm. The methanol phase was passed through a granular Na2SO4 column, evaporated till dryness and the residue taken up in 3 mL acetonitrile. For high concentration samples (>1 mg/kg), the soil was first shaken with methanol and centrifuged. Subsequently an aliquot of 100 µL was taken and together with 50 µL internal standard (Imidacloprid-d4 and Thiacloprid-d4, 250 µg/L) added to 1 mL methanol, passed through a granular Na2SO4 column, evaporated to dryness and taken up in 3 mL acetonitrile. For clean-up, the acetonitrile extract was added to a tube filled with Supel QuE (C18 150 mg, PSA 150 mg, MgSO4 900 mg, Sigma Aldrich), shaken by hand for 2 min and centrifuged for 3 min at 3000 rpm. The supernatant was evaporated till dryness under gentle nitrogen stream and the residue taken up in 200 µL of a water-methanol (9/1) mixture.
Extracts were analyzed using LC-MS and quantified by isotope dilution (imidacloprid-d4 and thiacloprid-d4). The neonicotinoids were separated on a 100 × 2.1 mm, 2.6 µm Kinetex XB-C18 column (Phenomenex), applying a gradient of 5 mM ammonium formate pH 4 buffer and methanol, at a flow rate of 0.3 mL/min. The LC system (Agilent 1200 series) was coupled to a 6410 triple quadrupole MS (Agilent) using electrospray ionization (ESI) with data acquisition in positive ion mode. The transitions for imidacloprid were 256.1 > 175/209 (quantifier/qualifier) and for imidacloprid-d4 260 > 179. For thiacloprid the transitions were253.1 > 126/90 (quantifier/qualifier) with 257 > 126 for thiacloprid-d4.
Using data on the imidacloprid and thiacloprid concentrations measured at different times after spiking the soil in the multigeneration test, half-life (DT50) values were estimated assuming first order degradation kinetics. The equation C = C0 * e^−k*t was fitted to the data, with C = concentration at time t in days, C0 is concentration at t = 0 and k = degradation rate constant (day^−1). DT50 was derived as ln(2) / k.

For data set [5] the following is noted: cited from earlier work.
Setting [6] is: number of juveniles, with 95% confidence interval.
Where [7] appears, read: F0 generation, 28 days, LUFA 2.2 soil, nominal concentrations.
Setting [8] is: F1 and F2 generations, 3.3 mg/kg dry soil.
The mark [9] stands for this setting: F1 generation, 35 days, soil spiked at start of F0, nominal concentrations.
The mark [10] stands for this setting: F2 generation, 28 days, soil spiked at start of F0, nominal concentrations.
The mark [11] stands for this setting: F2 generation, 28 days, soil spiked at start of F0, nominal concentrations, listed as thiacloprid.
The mark [12] stands for this setting: 28-day exposure, Lufa 2.2, ~3.0% OM, pure, ref De Lima e Silva et al. (submitted).

Molecules are shown by their SMILES. Values joined by “and” are separate entries in the source; they are usually repeats but may differ in a detail not shown here. Identical values can stand only once. Like-named read-outs stand apart in the source and are kept apart here.

The molecule `OB(O)O` [Boric acid, boric acid] yielded an NOEC in the data set on Folsomia candida [1] of 20 mg/kg dry soil. Also, in the data set on Folsomia candida [1] (setting [6]), the EC10 is given as 29 (25–33) mg/kg dry soil and the EC50 was 51 (47–54) mg/kg dry soil. In the data set on Folsomia candida [2] (OECD artificial soil, value mentioned in the test guideline, ref OECD (2009)), the EC50 is on record as 100 mg/kg dry soil.

Regarding `N#C/N=C1\SCCN1Cc1ccc(Cl)nc1` [Thiacloprid, thiacloprid], the effect on reproduction result with Folsomia candida [3] (F0 generation, 3.3 mg/kg dry soil) was “significantly reduced”. For the same molecule, the NOEC is reported as 0.11 mg/kg dry soil in the data set on Folsomia candida [3] (setting [7]), at least 3.3 mg/kg dry soil with Folsomia candida [3] (setting [9]) and 1.1 mg/kg dry soil in the data set on Folsomia candida [3] (setting [11]). Moreover, the LC50 in the data set on Folsomia candida [3] (F0 generation, 28 days, adult survival, LUFA 2.2 soil, nominal concentrations) was 9.0 mg/kg dry soil; in the data set with Folsomia candida [3] (setting [9]), > 3.33 mg/kg dry soil and > 3.3 mg/kg dry soil; in the data set with Folsomia candida [3] (setting [10]), above 3.3 mg/kg dry soil; with Folsomia candida [3] (setting [11]), > 3.33 mg/kg dry soil and > 3.3 mg/kg dry soil; with Folsomia candida [2] (setting [12]), 4.3-4.9 mg/kg dry soil. The EC10 is 0.23 mg/kg dry soil with Folsomia candida [3] (setting [7]) and above 3.3 mg/kg dry soil in the data set on Folsomia candida [3] (setting [10]). Besides, the EC50 with Folsomia candida [3] (setting [7]) was 1.5 mg/kg dry soil; in the data set with Folsomia candida [3] (setting [9]) it was > 3.33 mg/kg dry soil and > 3.3 mg/kg dry soil; in the data set with Folsomia candida [3] (setting [10]), above 3.3 mg/kg dry soil; in the data set on Folsomia candida [3] (setting [11]), > 3.33 mg/kg dry soil and > 3.3 mg/kg dry soil; in the data set on Folsomia candida [2] (setting [12]), 1.7-2.4 mg/kg dry soil. In the data set on Folsomia candida [3] (F0 generation, highest concentration tested 10 mg/kg dry soil), the “juveniles produced, on average” value is on record as 3 per jar. Besides, the “effects on juvenile numbers” value in the data set on Folsomia candida [3] (setting [8]) is given as “no effects”. For the same molecule, in the data set with Folsomia candida [3] (setting [8]), the springtail reproduction affected entry is “less than 50%”. Moreover, the “LC50, range over generations” value with Folsomia candida [3] (range over the three generations, Lufa 2.2, pure compound, this study) is listed as >3.33-9.0 mg/kg dry soil. Besides, in data set [4] (LUFA 2.2 soil (spiked natural loamy sand), pH 5.4, LUFA 2.2 soil, 20 °C, first order kinetics, read-out: DT50 (half-life) for degradation in test soil), the half-life – broadly, the time needed for the level to fall by half in the phase considered – is 240 to 288 h. Moreover, the “concentration, % of nominal” value in data set [4] (LUFA 2.2 soil, after 28 days, 1.1 and 3.3 mg/kg dry soil) was 91.2–101% and 90–100%. Besides, the “concentration, % of the nominal values” in data set [4] (LUFA 2.2 soil, after 63 days of incubation, all concentrations) was 7.6–22.0%. The “concentration, % of the nominal concentration” value in data set [4] (LUFA 2.2 soil, 0.0137 mg/kg) worked out at 22.0%; in data set [4] (LUFA 2.2 soil, 0.113 mg/kg), 19.8%. Further, the “concentration measured in soil” value in data set [4] (T=28, nominal 1.11, mean ± SD (n=3)) was determined as 1.1±0.35 mg/kg dry soil; in data set [4] (T=28, nominal 3.33, mean ± SD (n=3)) it was 3.0±0.42 mg/kg dry soil; in data set [4] (T=28, nominal 10, mean ± SD (n=3)) it was 5.7±0.27 mg/kg dry soil; in data set [4] (T=63 d, nominal 0.014, mean ± SD (n=3)) it was 0.003±0.0002 mg/kg dry soil; in data set [4] (T=63 d, nominal 0.113, mean ± SD (n=3)), 0.022±0.00044 mg/kg dry soil; in data set [4] (T=63 d, nominal 1.11, mean ± SD (n=3)), 0.12±0.0054 mg/kg dry soil. The “concentration measured in soil” value is 0.26±0.0038 mg/kg dry soil in data set [4] (T=63 d, nominal 3.33, mean ± SD (n=3)) and 0.76±0.015 mg/kg dry soil in data set [4] (T=63 d, nominal 10, mean ± SD (n=3)). Moreover, the field-based half-lives in data set [5] (field, ref European Commission (2004)) was 9 to 27 days. In data set [5] (laboratory tests, ref Goulson (2013), Bonmatin et al. (2015)), the half-life in soil was 81.6 to 1780 h. In data set [5] (ref Goulson (2013), Bonmatin et al. (2015)), the “factor less persistent in soil than imidacloprid” value is listed as 10.
